Data published in US20080051449A1, “PREPARATION OF ATORVASTATIN CALCIUM FORM VI AND COMPOSITIONS THEREOF” (priority 2006, published 2008).

Assays:
Assay type in all cases: physicochemical
[1] = Stability study under various stress conditions in an open container
From the text: Stability Study of Atorvastatin Calcium Crystalline Form VI (Example 3) Subject to Various Stress Conditions in an Open Container

[2] = Stability study at 40° C. and 75% relative humidity; details: 40° C./75% RH
From the text: Stability packaging: The sample was packed in a clear polyethylene bag and flushed with nitrogen, then tied and placed in a black polyethylene bag along with silica gel and tied. Finally the black bag was placed in a triple laminated bag and sealed with a liner sealer.

[3] = Stability study during storage at 25° C. and 60% relative humidity; details: 25° C./60% RH
Description: Stability Study of Atorvastatin Calcium Crystalline Form VI (Example 3) During Storage at 25° C. and 60% Relative Humidity.
Stability packaging: same as Example 5.

[4] = Particle size distribution by Malvern particle size analyzer; details: dispersant 0.7% dioctyl sodium sulfosuccinate in n-hexane
From the text: A particle size distribution of D50 as used herein is defined as the distribution where 50 volume percent of the particles are smaller than that size given. A particle size distribution of D10 as used herein is defined as the distribution where 10 volume percent of the particles are smaller than that size given. A particle size distribution of D90 as used herein is defined as the distribution where 90 volume percent of the particles are smaller than that size given. The D50 value is considered to be a “mean particle size.” Particle size can be determined using commercially available instrumentation, such as that sold by Malvern Instruments Ltd. of Malvern, Worcestershire, United Kingdom and using a laser diffraction principle.
The particle size distribution of atorvastatin calcium Form VI was determined using a Malvern® particle size analyzer, and 0.7% of dioctyl sodium sulfosuccinate in n-hexane was used as the dispersant.

[5] = Accelerated Stability (40° C. and 75% relative humidity) 24 hours
[6] = Compression (2000 kg/cm^2) for 1 hour
[7] = UV Photostability λ = 254 nm, 24 hours

[R—(R*,R*)]-2-(4-fluorophenyl)-β,δ-dihydroxy-5-(1-methylethyl)-3-phenyl-4[(phenyl amino) carbonyl]-IH-pyrrole-1-heptanoic acid, calcium salt (2:1) trihydrate [Atorvastatin calcium Form VI (Example 3)]
Total Impurities [1, 5]: 0.29 % w/w
Water by KF [1, 5]: 1.85 % w/w
Total Impurities [1, 6]: 0.32 % w/w
Water by KF [1, 6]: 1.68 % w/w
Total Impurities ([1]; Initial analysis): 0.26 % w/w
Water by KF ([1]; Initial analysis): 1.60 % w/w
Total Impurities ([1]; Thermal (90° C.) 24 hours): 0.7 % w/w
Water by KF ([1]; Thermal (90° C.) 24 hours): 1.04 % w/w
Total Impurities [1, 7]: 0.27 % w/w
Water by KF [1, 7]: 1.54 % w/w
Assay by HPLC ([2]; 1 month): 99.2 % w/w
Moisture Content ([2]; 1 month): 1.4 % w/w
Total Impurities by HPLC ([2]; 1 month): 0.14 % w/w
Assay by HPLC ([2]; 3 months): 99.2 % w/w
Moisture Content ([2]; 3 months): 1.6 % w/w
Total Impurities by HPLC ([2]; 3 months): 0.15 % w/w
Assay by HPLC ([2]; 6 months): 99.2 % w/w
Moisture Content ([2]; 6 months): 1.6 % w/w
Total Impurities by HPLC ([2]; 6 months): 0.24 % w/w
Assay by HPLC ([2]; Initial): 99.1 % w/w
Moisture Content ([2]; Initial): 1.4 % w/w
Total Impurities by HPLC ([2]; Initial): 0.18 % w/w
Assay by HPLC ([3]; 1 month): 99.1 % w/w
Moisture Content ([3]; 1 month): 1.5 % w/w
Total Impurities by HPLC ([3]; 1 month): 0.16 % w/w
Assay by HPLC ([3]; 3 months): 99.1 % w/w
Moisture Content ([3]; 3 months): 1.7 % w/w
Total Impurities by HPLC ([3]; 3 months): 0.14 % w/w
Assay by HPLC ([3]; 6 months): 99.3 % w/w
Moisture Content ([3]; 6 months): 1.5 % w/w
Total Impurities by HPLC ([3]; 6 months): 0.23 % w/w
Assay by HPLC ([3]; Initial): 99.1 % w/w
Moisture Content ([3]; Initial): 1.4 % w/w
Total Impurities by HPLC ([3]; Initial): 0.18 % w/w
Particle Size D10 [4]: 1.32 μm
Particle Size D50 [4]: 5.22 μm
Particle Size D90 [4]: 24.54 μm
